# From ChEMBL document CHEMBL4837226, “Discovery of pyrrole derivatives for the treatment of glioblastoma and chronic myeloid leukemia” (Eur J Med Chem, 2021)
# Activity calls are given as the source filed them. The calls are words filed in the database; no cut-off is given here.
# What was measured:
# [1] = Cytotoxicity against human U-343MG cells assessed as cell growth inhibition measured after 72 hrs by MTS colorimetric assay; format: functional, cell-based
# [2] = Cytotoxicity against human U343MG cells assessed as cell growth inhibition by measuring maximum efficacy measured after 72 hrs by MTS colorimetric assay relative to control; format: functional; conditions: U-343MG
# [3] = test system: U-87 MG; assay: Cytotoxicity against human U-87MG cells assessed as cell growth inhibition measured after 48 hrs by MTS colorimetric assay; format: functional, cell-based, U-87MG ATCC
# [4] = test system: U-87 MG; assay: Antitumor activity against human U-87MG cells xenografted in BALB/c nu/nu mouse assessed as reduction in glioma tumors at 25 mg/kg, ip administered every 2 days for 35 days by hematoxylin and eosin staining based assay; format: functional, organism-based; conditions: U-87MG ATCC, time 35.0 day
# [5] = test system: KBM5; assay: Potentiation of ponatinib-induced apoptosis human KBM5 cells assessed as increase in apoptotic cells at 5 nM measured after 48 hrs by annexin V staining based flow cytometry analysis; format: functional, cell-based
# [6] = test system: KBM5; assay: Potentiation of ponatinib-induced apoptosis human KBM5 cells expressing T315I mutant assessed as increase in apoptotic cells at 5 nM measured after 48 hrs by annexin V staining based flow cytometry analysis (reference value: 35 %); format: functional
# [7] = test system: KBM5; assay: Potentiation of ponatinib-induced mitochondrial membrane depolarization in human KBM5 cells expressing T315I mutant at 5 nM measured upto 48 hrs by JC-1 staining based flow cytometry analysis; format: functional, cell-based; conditions: time hrs <=48
# [8] = test system: KBM5; assay: Potentiation of ponatinib-induced mitochondrial membrane depolarization in human KBM5 cells expressing T315I mutant at 5 nM in the presence of ponatinib measured upto 48 hrs by JC-1 staining based flow cytometry analysis (Rvb= 32.7 %); format: functional; conditions: time hrs <=48
# [9] = biological target: Bcr/Abl fusion protein (Homo sapiens) (UniProt P00519+P11274); assay: Inhibition of Bcr-Abl tyrosine phosphorylation in human KBM5 cells expressing T315I mutant at 1 to 10 nM in the presence of ponatinib measured after 24 hrs by western blot analysis; format: cell-based; conditions: dose 1-10 nM
# Bcr/Abl fusion protein (Homo sapiens), sequence (P00519 whole entry, looked up, the tested form may be a part): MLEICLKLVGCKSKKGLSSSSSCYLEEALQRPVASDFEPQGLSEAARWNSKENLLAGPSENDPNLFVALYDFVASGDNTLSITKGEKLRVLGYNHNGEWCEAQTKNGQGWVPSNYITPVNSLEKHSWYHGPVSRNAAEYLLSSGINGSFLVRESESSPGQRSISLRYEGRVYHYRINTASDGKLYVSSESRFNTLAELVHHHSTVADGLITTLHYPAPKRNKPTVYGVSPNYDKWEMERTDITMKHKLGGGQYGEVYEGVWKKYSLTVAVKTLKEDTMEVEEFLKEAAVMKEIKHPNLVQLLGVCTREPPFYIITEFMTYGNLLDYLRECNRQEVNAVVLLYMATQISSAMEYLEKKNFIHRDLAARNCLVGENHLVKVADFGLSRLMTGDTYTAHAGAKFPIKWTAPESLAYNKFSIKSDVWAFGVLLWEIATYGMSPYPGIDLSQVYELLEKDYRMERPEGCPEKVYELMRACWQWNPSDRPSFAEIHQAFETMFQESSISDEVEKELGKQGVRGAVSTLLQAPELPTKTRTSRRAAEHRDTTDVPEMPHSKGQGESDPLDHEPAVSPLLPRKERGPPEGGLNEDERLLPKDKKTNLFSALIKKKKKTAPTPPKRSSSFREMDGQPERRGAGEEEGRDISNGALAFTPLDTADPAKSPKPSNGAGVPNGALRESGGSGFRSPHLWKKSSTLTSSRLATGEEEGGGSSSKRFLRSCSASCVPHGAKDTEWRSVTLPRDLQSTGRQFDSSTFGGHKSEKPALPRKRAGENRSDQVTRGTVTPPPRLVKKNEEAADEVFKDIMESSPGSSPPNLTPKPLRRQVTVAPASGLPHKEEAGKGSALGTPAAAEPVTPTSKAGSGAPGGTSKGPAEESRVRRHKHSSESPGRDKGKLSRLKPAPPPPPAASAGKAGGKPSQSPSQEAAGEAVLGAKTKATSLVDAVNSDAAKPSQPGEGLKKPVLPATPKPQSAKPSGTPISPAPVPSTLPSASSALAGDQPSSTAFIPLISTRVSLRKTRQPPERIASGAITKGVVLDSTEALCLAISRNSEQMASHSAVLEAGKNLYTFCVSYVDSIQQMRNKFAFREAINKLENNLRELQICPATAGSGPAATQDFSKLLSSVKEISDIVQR
# Bcr/Abl fusion protein (Homo sapiens), sequence (P11274 whole entry, looked up, the tested form may be a part): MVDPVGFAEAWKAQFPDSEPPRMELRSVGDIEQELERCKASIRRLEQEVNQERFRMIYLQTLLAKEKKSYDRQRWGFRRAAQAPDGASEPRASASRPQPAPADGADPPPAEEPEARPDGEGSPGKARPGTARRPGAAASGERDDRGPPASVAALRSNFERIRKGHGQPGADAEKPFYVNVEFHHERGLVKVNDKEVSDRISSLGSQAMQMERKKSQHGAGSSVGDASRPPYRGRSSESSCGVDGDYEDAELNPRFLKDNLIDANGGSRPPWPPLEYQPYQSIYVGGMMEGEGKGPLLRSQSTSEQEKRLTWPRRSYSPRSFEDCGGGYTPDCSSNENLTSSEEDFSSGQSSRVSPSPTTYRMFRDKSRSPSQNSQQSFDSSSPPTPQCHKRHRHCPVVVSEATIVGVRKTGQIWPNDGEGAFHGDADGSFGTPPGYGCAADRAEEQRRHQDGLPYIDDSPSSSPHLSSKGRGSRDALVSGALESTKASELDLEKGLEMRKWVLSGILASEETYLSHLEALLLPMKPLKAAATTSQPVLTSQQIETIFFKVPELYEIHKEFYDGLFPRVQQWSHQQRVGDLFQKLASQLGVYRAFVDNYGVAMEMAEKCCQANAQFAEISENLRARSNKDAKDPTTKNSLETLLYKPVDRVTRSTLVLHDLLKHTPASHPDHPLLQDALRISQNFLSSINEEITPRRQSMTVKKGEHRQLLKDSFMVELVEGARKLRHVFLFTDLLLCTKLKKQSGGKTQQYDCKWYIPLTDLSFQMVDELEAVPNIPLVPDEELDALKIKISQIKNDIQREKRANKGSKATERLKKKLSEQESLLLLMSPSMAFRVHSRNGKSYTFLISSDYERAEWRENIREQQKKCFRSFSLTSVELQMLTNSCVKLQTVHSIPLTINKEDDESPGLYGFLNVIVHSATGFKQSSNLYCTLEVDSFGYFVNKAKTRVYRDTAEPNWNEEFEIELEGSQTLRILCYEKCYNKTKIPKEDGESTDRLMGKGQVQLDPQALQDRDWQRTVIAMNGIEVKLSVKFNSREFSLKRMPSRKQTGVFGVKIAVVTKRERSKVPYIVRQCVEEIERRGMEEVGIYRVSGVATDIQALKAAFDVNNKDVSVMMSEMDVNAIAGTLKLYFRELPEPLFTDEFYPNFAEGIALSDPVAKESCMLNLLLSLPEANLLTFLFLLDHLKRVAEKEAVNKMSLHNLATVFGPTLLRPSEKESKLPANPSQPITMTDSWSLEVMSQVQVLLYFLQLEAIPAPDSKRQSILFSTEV
# [10] = test system: KBM5; assay: Induction of apoptosis in human KBM5 cells expressing T315I mutant assessed as increase in Bcr-Abl expression at 1 to 10 uM measured after 24 hrs by western blot analysis; format: functional, cell-based; conditions: dose 1-10 µM
# [11] = biological target: DNA topoisomerase II (Homo sapiens) (UniProt P11388+Q02880); assay: Inhibition of human topoisomerase II assessed as reduction in decantenation using kinetoplast DNA as a substrate at 10 to 50 uM measured after 1 hr by ethidium bromide staining based agarose gel electrophoresis analysis; format: protein assay; conditions: dose 10-50 µM
smiles,measurement,setting,value
COc1cc(C(=O)c2cn(-c3ccc(C)cc3)cc2-c2ccsc2)cc(OC)c1OC,IC50,[1],18.6 nM
same,Emax,[2],48.5%
same,IC50,[3],19.4 nM
same,Activity,[4],Active
same,Activity,[5],Active
same,Activity,[6],70%
same,Activity,[7],Active
same,Activity,[8],56.7%
same,inhibition,[9],Active
same,Activity,[10],Active
same,inhibition,[11],inactive
